Data set [1] addresses T1, CYP2C8 (Homo sapiens, UniProt P10632).
T1 sequence (P10632 1-490): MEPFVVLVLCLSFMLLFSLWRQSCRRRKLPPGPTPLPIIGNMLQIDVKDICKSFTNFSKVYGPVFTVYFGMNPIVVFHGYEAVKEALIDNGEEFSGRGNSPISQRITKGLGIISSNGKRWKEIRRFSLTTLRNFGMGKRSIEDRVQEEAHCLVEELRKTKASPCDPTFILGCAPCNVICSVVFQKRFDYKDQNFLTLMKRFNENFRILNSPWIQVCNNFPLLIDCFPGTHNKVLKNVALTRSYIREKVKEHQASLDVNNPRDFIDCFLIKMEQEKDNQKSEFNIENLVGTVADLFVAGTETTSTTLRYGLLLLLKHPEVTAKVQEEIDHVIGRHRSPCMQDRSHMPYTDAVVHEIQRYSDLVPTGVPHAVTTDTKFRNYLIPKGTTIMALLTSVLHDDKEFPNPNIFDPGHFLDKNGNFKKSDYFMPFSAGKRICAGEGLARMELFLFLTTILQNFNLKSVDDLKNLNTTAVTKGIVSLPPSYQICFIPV
The data set is described as follows: Metabolic stability in recombinant human CYP2C8 metabolic enzyme. In kind it is in vitro ADME. The following applies: CYP subtype 2C8, test concentration 2 (M); for half-life at 2 µM: human, recombinant CYP2C8, pH 7.4, read-out: Half-life T1/2. The procedure: 1) Na2HPO4, KH2PO4, and pure water were used to prepare phosphate buffer (100 mM, pH 7.4);
2) Test compound and reference compound were dissolved in acetonitrile to obtain a working solution (200 M);
3) NADPH solution (10 mM) was prepared with NADPH and phosphate buffer (100 mM, pH 7.4);
4) The stock solution of recombinant CYP2C8 enzyme was diluted to […] with phosphate buffer (100 mM, pH 7.4);
5) The working solution of test compound or reference compound Amitriptyline was added to CYP2C8 solution, and the concentration of compound was 2 M, to which was added NADPH solution (10 mM) to initiate a metabolic reaction. 30 L incubation solution of metabolic reaction was collected at 0, 5, 10, 15, 25 minutes, and transferred to a quenching plate to quench with 120 L acetonitrile (including internal standard);
6) The sample was centrifuged at 4° C. for 60 min to precipitate the protein. The supernatant was collected and transferred to a 96-well plate, then diluted one times with pure water, and subjected to LC-MS/MS analysis;
7) The data analysis and calculation were similar to experimental example 2.

Data set [2] is described as follows: Metabolic stability in human liver microsomes. In kind it is in vitro ADME. Particulars: 1 μM test drug, 0.5 mg/ml protein, 1 mM NADPH, read-out: Half-life t1/2. As to the method: 1. Preparation of NADPH solution (5 mM): An appropriate amount of NADPH standard was weighed and dissolved in phosphate buffer (1×PBS), that was mixed well and placed in an ice bath for use; Preparation of test compound solution: an appropriate amount of test substances were respectively weighed, and a solution with a suitable concentration was prepared with DMSO, to obtain stock solution I; an suitable amount of stock solution I was further diluted to 5 mM with 1×PBS to obtain stock solution II, that was stored in a refrigerator at 4° C. for later use; Preparation of liver microsome solution: the original solutions of rat, mouse, and human liver microsomes were respectively diluted to 0.833 mg/ml with PBS. 2. 60 μl of liver microsome solution was transferred to a 1 ml 96-well plate, to which was added 20 μl of the test drug solution (or probe substrate testosterone solution), and then pre-incubated for 5 min in a 37° C. thermomixer. 20 μl NADPH solution was added to start the reaction, and the contents of test drug, microsomal protein and NADPH in the reaction system were 1 μM, 0.5 mg/ml and 1 mM, respectively, and the content of DMSO in the system was not higher than 0.2%. Then, at 0, 15, 30, 45, 60 min (duplicated wells for each time point), 300 μl acetonitrile was added to stop the reaction (including the internal standard compound suitably selected).
3. 20 μl NADPH was replaced with an equal volume of 1×PBS in the control group, and the contents of test drug and microsomal protein in the reaction system were 1 μM and 0.5 mg/ml, respectively, while the content of DMSO in the system was not higher than 0.2%. Respectively at 0 min and 60 min (duplicated wells at each time point), 300 μl acetonitrile was added to stop the reaction (including the internal standard compound suitably selected).
4. After finishing the incubation time, the samples obtained by terminating the reaction were mixed, and centrifuged at 3200 rpm for 10 min, then the supernatant was collected for LC/MS/MS analysis.
5. Data analysis: The peak area was determined from the extracted ion chromatogram. The slope value k was determined by linear regression of the natural logarithm obtained from the curve that was resulted from the remaining percentage of the parent drug vs the incubation time.
In vitro half-life (in vitro t1/2) was determined by the slope value: in vitro t1/2=−(0.693/k) In vitro CLint (in the unit of L/min/mg) was converted from the in vitro half-life t1/2 (minutes) using the following equation (the average of repeated determinations): […]
Scale up CLint (in the unit of mL/min/kg) was converted from in vitro t1/2 (minutes) by using the following formula (the average of repeated determinations): […]
In general terms: Microsomes from liver hold many membrane-bound enzymes, among them those of drug oxidation.

Molecules are shown by their SMILES.

`[2H]c1c(Oc2c(Cl)cc(-n3nc(C#N)c(=O)[nH]c3=O)cc2Cl)n[nH]c(=O)c1C(C([2H])([2H])[2H])C([2H])([2H])[2H]` [Compound 11, 2-(3,5-dichloro-4-((4-deuterio-5-(1,1,1,3,3,3-hexadeuteropropan-2-yl)-6-oxo-1,6-dihydro-pyridazin-3-yl)oxy)phenyl)-3,5-dioxo-2,3,4,5-tetrahydro-1,2,4-triazine-6-carbonitrile]: in data set [1], the “Clearance rate CLint” value is reported as 0.06 μL/min/pmol CYP450, the “Percentage of residual substances after 25 minutes” value (“Percentage of residual substances” below) worked out at 85.57% and the half-life at 2 µM turned out to be 1.83 h. The half-life at 1 μM in data set [2] worked out at 19.6 h.

Take `[2H]c1c(Oc2c(Cl)cc(-n3nc(C#N)c(=O)[nH]c3=O)cc2Cl)n[nH]c(=O)c1C([2H])(C([2H])([2H])[2H])C([2H])([2H])[2H]` [Compound 10, 2-(3,5-dichloro-4-((4-deuterio-5-(heptadeuteroisopropyl)-6-oxo-1,6-dihydro-pyridazin3-yl)oxy)phenyl)-3,5-dioxo-2,3,4,5-tetrahydro-1,2,4-triazine-6-carbonitrile]: in data set [1], the “Clearance rate CLint” value was found to be 0.07 μL/min/pmol CYP450, the “Percentage of residual substances” value was 81.60% and the half-life at 2 µM was 1.6 h. Moreover, the half-life at 1 μM in data set [2] turned out to be 10.7 h.

For `[2H]C([2H])([2H])C([2H])(c1cc(Oc2c(Cl)cc(-n3nc(C#N)c(=O)[nH]c3=O)cc2Cl)n[nH]c1=O)C([2H])([2H])[2H]` [Compound 2], in data set [1], the “Clearance rate CLint” value was determined as 0.08 μL/min/pmol CYP450, the “Percentage of residual substances” value is 80.87% and the half-life at 2 µM was determined as 1.51 h. For the same compound, in data set [2], the half-life at 1 μM amounted to 21.2 h.
